# In US20240368204A1, “SMALL MOLECULAR CD73 ANTAGONIST AND USE THEREOF” (XIZANG HAISCO PHARMACEUTICAL CO., LTD., priority 2021, published 2024):
# Biological target: Human recombinant protein CD73 (Homo sapiens (Human), UniProt P21589)
# Assay: CD73 enzyme activity in vitro (Malachite Green, AMP substrate)
# Assay type: biochemical
# Conditions: recombinant CD73, 100 μM AMP substrate solution, absorbance at 620 nm
# Procedure: 1. Test Method for CD73 Enzyme Activity In Vitro
# Human recombinant protein CD73 (Acro, Cat. No. CD3-H52H7) was prepared into a 0.04 ng/μL protein solution, and substrate AMP (Sigma, Cat. No. A1752-1G) was prepared into a 100 μM substrate solution. 5 μL of compounds at different concentrations were added into a 384-well white transparent bottom plate, 5 μL of 0.04 ng/μL recombinant CD73 enzyme solution was added, and the mixture was incubated at room temperature for 15 minutes. 10 μL of 100 μM substrate solution was added, the mixture was incubated at 37° C. for 40 minutes, 5 μL of Malachite Green Reagent A (R&D, Cat. No. DY996) was added, the mixture was incubated at room temperature for 10 minutes, and finally, 5 μL of Malachite Green Reagent B was added, the mixture was incubated at room temperature for 20 minutes, and a microplate reader PHERAstar FSX instrument was used to detect the absorbance at 620 nm. IC50 values were calculated using the origin9.2 software. The calculation formula of the inhibition rate was shown in Formula 1, wherein ODsample is the readout for the compound, ODnegative is the readout for the negative control without substrate, and ODpositive is the readout for the vehicle control.
# Sequence of Human recombinant protein CD73 (P21589 27-574): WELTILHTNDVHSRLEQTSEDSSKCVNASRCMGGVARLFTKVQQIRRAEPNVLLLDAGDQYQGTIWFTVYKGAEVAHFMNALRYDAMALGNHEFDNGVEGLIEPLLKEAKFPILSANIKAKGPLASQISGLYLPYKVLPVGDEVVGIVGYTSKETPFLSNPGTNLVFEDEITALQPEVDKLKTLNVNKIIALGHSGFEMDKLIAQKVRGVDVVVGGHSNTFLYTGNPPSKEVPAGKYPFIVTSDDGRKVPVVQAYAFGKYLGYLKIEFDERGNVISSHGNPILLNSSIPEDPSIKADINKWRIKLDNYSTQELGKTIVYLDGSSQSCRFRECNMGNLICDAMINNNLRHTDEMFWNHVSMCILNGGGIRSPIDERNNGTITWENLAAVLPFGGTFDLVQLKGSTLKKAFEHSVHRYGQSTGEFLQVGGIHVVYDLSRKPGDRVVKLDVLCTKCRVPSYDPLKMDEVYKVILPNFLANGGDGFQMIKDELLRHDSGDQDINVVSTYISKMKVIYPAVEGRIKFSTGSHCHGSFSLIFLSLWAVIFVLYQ
row,Structure (SMILES),IC50
1,"O=P(O)(O)CP(=O)(O)OC[C@H]1O[C@@H](n2ncc3c(N4C[C@H]5CCC[C@H]5C4)nc(Cl)nc32)[C@H](O)[C@@]1(O)C(F)F [Compound 33, (((((2R,3S,4R,5R)-5-(6-chloro-4-((3aR,6aS)-hexahydrocyclopenta[c]pyrrol-2(1H)-yl)-1H-pyrazolo[3,4-d]pyrimidin-1-yl)-3-(difluoromethyl)-3,4-dihydroxytetrahydrofuran-2-yl)methoxy)(hydroxy)phosphoryl)methyl)phosphonic acid]",1.2 nM
2,"O=P(O)(O)CP(=O)(O)OC[C@H]1O[C@@H](n2ncc3c(N4C[C@H]5CCC[C@H]5C4)cc(Cl)nc32)[C@H](O)[C@@]1(O)CO [Compound 29, (((((2R,3S,4R,5R)-5-(6-chloro-4-((3aR,6aS)-hexahydrocyclopenta[c]pyrrol-2(1H)-yl)-1H-pyrazolo[3,4-b]pyridin-1-yl)-3,4-dihydroxy-3-(hydroxymethyl)tetrahydrofuran-2-yl)methoxy)(hydroxy)phosphoryl)methyl) phosphonic acid]",2.6 nM
3,"O=P(O)(O)CP(=O)(O)OC[C@H]1O[C@@H](n2ncc3c(N4C[C@H]5CCC[C@H]5C4)cc(Cl)nc32)[C@H](O)[C@@]1(O)C(F)F [Compound 32, (((((2R,3S,4R,5R)-5-(6-chloro-4-((3aR,6aS)-hexahydrocyclopenta[c]pyrrol-2(1H)-yl)-1H-pyrazolo[3,4-b]pyridin-1-yl)-3-(difluoromethyl)-3,4-dihydroxytetrahydrofuran-2-yl)methoxy)(hydroxy)phosphoryl)methyl)phosphonic acid]",0.9 nM
4,"CC(C)ONc1cc(Cl)nc2c1cnn2[C@@H]1O[C@H](COP(=O)(O)CP(=O)(O)O)[C@@H](O)[C@H]1O [Compound 26, (((((2R,3 S,4R,5R)-5-(6-chloro-4-(isopropoxyamino)-1H-pyrazolo[3,4-b]pyridin-1-yl)-3,4-dihydroxytetrahydrofuran-2-yl)methoxy)(hydroxy)phosphoryl)methyl)phosphonic acid]",2.9 nM
5,"CONc1nc(Cl)nc2c1cnn2[C@@H]1O[C@H](COP(=O)(O)CP(=O)(O)O)[C@@H](O)[C@H]1O [Compound 18, (((((2R,3S,4R,5R)-5-(6-chloro-4-(methoxyamino)-1H-pyrazolo[3,4-d]pyrimidin-1-yl)-3,4-dihydroxytetrahydrofuran-2-yl)methoxy)(hydroxy)phosphoryl)methyl)phosphonic acid]",1.8 nM
6,"CC(C)ONc1nc(Cl)nc2c1cnn2[C@@H]1O[C@H](COP(=O)(O)CP(=O)(O)O)[C@@H](O)[C@H]1O [Compound 27, (((((2R,3S,4R,5R)-5-(6-chloro-4-(isopropoxyamino)-1H-pyrazolo[3,4-d]pyrimidin-1-yl)-3,4-dihydroxytetrahydrofuran-2-yl)methoxy)(hydroxy)phosphoryl)methyl)phosphonic acid]",1.7 nM
7,"CONc1cc(Cl)nc2c1cnn2[C@@H]1O[C@H](COP(=O)(O)CP(=O)(O)O)[C@@H](O)[C@H]1O [Compound 24, (((((2R,3S,4R,5R)-5-(6-chloro-4-(methoxyamino)-1H-pyrazolo[3,4-b]pyridin-1-yl)-3,4-dihydroxytetrahydrofuran-2-yl)methoxy)(hydroxy)phosphoryl)methyl) phosphonic acid]",5.3 nM

# Further lines, results first:
row,IC50,Structure (SMILES)
1,0.7 nM,"O=P(O)(O)CP(=O)(O)OC[C@H]1O[C@H](n2ncc3c(N4C[C@H]5CCC[C@H]5C4)nc(Cl)nc32)[C@H](O)[C@@]1(O)CO [Compound 31, (((((2R,3S,4R,5S)-5-(6-chloro-4-((3aR,6aS)-hexahydrocyclopenta[c]pyrrol-2(1H)-yl)-1H-pyrazolo[3,4-d]pyrimidin-1-yl)-3,4-dihydroxy-3-(hydroxymethyl)tetrahydrofuran-2-yl)methoxy)(hydroxy)phosphoryl)methyl)phosphonic acid]"
2,0.7 nM,"O=P(O)(O)CP(=O)(O)OC[C@H]1O[C@@H](n2ncc3c(N4C[C@H]5CCC[C@H]5C4)nc(Cl)nc32)[C@H](O)[C@@]1(O)CO [Compound 28, (((((2R,3S,4R,5R)-5-(6-chloro-4-((3aR,6aS)-hexahydrocyclopenta[c]pyrrol-2(1H)-yl)-1H-pyrazolo[3,4-d]pyrimidin-1-yl)-3,4-dihydroxy-3-(hydroxymethyl)tetrahydrofuran-2-yl)methoxy)(hydroxy)phosphoryl)methyl)phosphonic acid]"
3,0.4 nM,"C[C@H](Nc1cc(Cl)nc2c1cnn2[C@@H]1O[C@H](COP(=O)(O)CP(=O)(O)O)[C@](O)(CO)[C@H]1O)c1ccccc1F [Compound 12, (((((2R,3S,4R,5R)-5-(6-chloro-4-(((S)-1-(2-fluorophenyl)ethyl)amino)-1H-pyrazolo[3,4-b]pyridin-1-yl)-3,4-dihydroxy-3-(hydroxymethyl)tetrahydrofuran-2-yl)methoxy)(hydroxy)phosphoryl)methyl)phosphonic acid]"
4,0.4 nM,"O=P(O)(O)CP(=O)(O)OC[C@H]1O[C@@H](n2ncc3c(NOC4CCCC4)nc(Cl)nc32)[C@H](O)[C@@H]1O [Compound 25, (((((2R,3S,4R,5R)-5-(6-chloro-4-((cyclopentyloxy)amino)-1H-pyrazolo[3,4-d]pyrimidin-1-yl)-3,4-dihydroxytetrahydrofuran-2-yl)methoxy)(hydroxy)phosphoryl)methyl)phosphonic acid]"
5,0.3 nM,"C[C@@]1(O)[C@@H](COP(=O)(O)CP(=O)(O)O)O[C@@H](n2ncc3c(N4C[C@H]5CCC[C@H]5C4)nc(Cl)nc32)[C@@H]1O [Compound 38, (((((2R,3S,4R,5R)-5-(6-chloro-4-((3aR,6aS)-hexahydrocyclopenta[c]pyrrol-2(1H)-yl)-1H-pyrazolo[3,4-d]pyrimidin-1-yl)-3,4-dihydroxy-3-methyltetrahydrofuran-2-yl)methoxy)(hydroxy)phosphoryl)methyl)phosphonic acid]"
6,0.2 nM,"O=P(O)(O)CP(=O)(O)OC[C@H]1O[C@@H](n2ncc3c(NOCc4ccccc4)nc(Cl)nc32)[C@H](O)[C@@H]1O [Compound 30, (((((2R,3S,4R,5R)-5-(4-((benzyloxy)amino)-6-chloro-1H-pyrazolo[3,4-d]pyrimidin-1-yl)-3,4-dihydroxytetrahydrofuran-2-yl)methoxy)(hydroxy)phosphoryl)methyl)phosphonic acid]"
7,0.06 nM,"C#C[C@@]1(O)[C@@H](COP(=O)(O)CP(=O)(O)O)O[C@@H](n2ncc3c(N4C[C@H]5CCC[C@H]5C4)nc(Cl)nc32)[C@@H]1O [Compound 40, (((((2R,3S,4R,5R)-5-(6-chloro-4-((3aR,6aS)-hexahydrocyclopenta[c]pyrrol-2(1H)-yl)-1H-pyrazolo[3,4-d]pyrimidin-1-yl)-3-ethynyl-3,4-dihydroxytetrahydrofuran-2-yl)methoxy)(hydroxy)phosphoryl)methyl)phosphonic acid]"

# System: B16F10 xenograft tumor
# Assay: B16F10 xenograft tumor model in vivo
# Parameters: species or system mouse
# Conditions: 30 mg/kg, single agent
# Procedure: B16F10 Xenograft Tumor Model In Vivo
# B16F10 cells were purchased from ATCC, the cell medium was DMEM+10% FBS+1% double antibody, and the cells were cultured in an incubator at 37° C. under 5% CO2. After the cells had grown to a number sufficient for inoculation, the cells were harvested. The cell-containing culture solution was transferred to a 50 mL sterile centrifuge tube, and centrifuged at 1500 rpm for 3 minutes. The centrifuge tube was taken out after centrifugation, and the supernatant was discarded. The cells were resuspended in a pre-cooled PBS and centrifuged at 1500 rpm for 3 minutes, and after centrifugation, the supernatant was discarded; the process was repeated twice. Finally, the cells were resuspended in a pre-cooled PBS. After counting, the cells were diluted to 1×10^6 cells/mL with a pre-cooled PBS. […] The second day of inoculation was recorded as Day 0, and compound 28 (the vehicle was phosphate buffer saline) was given by intragastric administration every day after randomization, and animals in both the group with the anti-PD-1 antibody (anti-PD-1; BioXcell, Cat. CD279) and the group with combined drugs were injected intraperitoneally with the anti-PD-1 antibody (twice a week). The long and short diameters of the tumors were measured with an electronic vernier caliper, and the body weight of the animals was recorded. […]
row,Structure (SMILES),TGI % (day 15)
1,"C[C@H](Nc1cc(Cl)nc2c1cnn2[C@@H]1O[C@H](COP(=O)(O)CP(=O)(O)O)[C@@H](O)[C@H]1O)c1ccccc1F [AB680, reference compound]",57.96%

# Same assay, conditions: 100 mg/kg, intragastric administration every day, single agent
row,Structure (SMILES),TGI % (day 15)
1,"O=P(O)(O)CP(=O)(O)OC[C@H]1O[C@@H](n2ncc3c(N4C[C@H]5CCC[C@H]5C4)nc(Cl)nc32)[C@H](O)[C@@]1(O)CO [Compound 28, (((((2R,3S,4R,5R)-5-(6-chloro-4-((3aR,6aS)-hexahydrocyclopenta[c]pyrrol-2(1H)-yl)-1H-pyrazolo[3,4-d]pyrimidin-1-yl)-3,4-dihydroxy-3-(hydroxymethyl)tetrahydrofuran-2-yl)methoxy)(hydroxy)phosphoryl)methyl)phosphonic acid]",50.12%
